Source: patent US9340500B2, “Aromatic heterocyclic derivative having TRPV4-inhibiting activity” (SHIONOGI & CO., LTD., priority 2011, dated 2016)
Converted amounts (≈) assume the structure as drawn.

Experiments:
human TRPV4 [1] = target: T1, human TRPV4 (Homo sapiens (Human), UniProt Q9HBA0); experiment: Test Example 3: measurement of TRPV4 inhibitory activity (Fluo-3, FDSS 3000, 4α-PDD); format: cell-based; conditions: hTRPV4/CHO cells, calculated from IC50 and 4α-PDD EC50
Description: For each compound, TRPV4 inhibitory activity was measured using cells.
(1) The TRPV4 inhibitory activity was measured using CHO-K1 cells stably expressing human TRPV4 (hTRPV4/CHO cells).
(2) Frozen cells were thawed and subcultured with the medium (MEM-α, 10% FBS, […], 50 unit/mL penicillin, 50 μg/mL streptomycin, 1 mg/mL G418).
(3) The 96-well plates which hTRPV4/CHO cells were seeded at densities of 2×10^4 cells/well in the culture medium and cultured in a CO2 incubator in the presence of 5% CO2 at 37° C. for 24 h was used as assay plates.
(4) The assay plate was washed with assay buffer (Hanks, […], […], pH7.4).
(5) Fluo-3, fluorescent dye for Ca influx assay was added to each well, then the assay plate was incubated in a CO2 incubator in the presence of 5% CO2 at 37° C. for one hour (final conc.; 5 μmmol/L Fluo-3).
(6) The assay plate was washed with the assay buffer, and the buffer was remained at 30 μL/well. Then the assay plate was incubated for 10 min at 37° C.
(7) Diluted compound solution was dispensed to each well in the compound plate, and mixed with built-in Pipette and Mixer of the fluorescence analysis system FDSS 3000 (Hamamatsu Photonics).
(8) 50 μL of 4α-PDD solution (concluding 0.1% Pluronic F-127) was applied to each well of assay plate and mixed.
(9) The fluorescent intensity was measured by FDSS 3000 for 8 min from the point of time addition the compound solution, at Ex 480 nm, Em 540 nm wavelength.
TRPV4 inhibitory activity (Ki value) of a compound was evaluated according to the following procedure.
(10) In the presence of the compound, the difference between maximal and minimal of fluorescent intensity value for 8 min from just before addition of 4α-PDD solution was calculated, and it was referred as Max-Min value. Max-Min value of the Ruthenium Red at 10 μM was defined as 100% inhibitory activity, Max-Min value in the absence of the compound was defined as 0% inhibitory activity. The TRPV4 inhibitory activity of the compound was calculated by the following formula. (1−(Max-Min value of the compound−100% inhibitory activity)/(0% inhibitory activity−100% inhibitory activity))×100 (11) By the following formula, inhibitory activity was calculated at 10 points with three fold serial dilution, in the final concentration of the compound from 10 μmmol/L to 0.5 nmol/L. The IC50 value was calculated by dose-response curve. 100−[(fluorescent intensity in the presence of the compound−fluorescent intensity of back ground)/(total fluorescent intensity−fluorescent intensity of back ground)]×100 (12) In the presence of the compound, activity of 4α-PDD was measured at 9 points with three fold serial dilution from 20 μmol/L. Activity of 4α-PDD was calculated by the following formula. (Max-Min value of the each 4α-PDD concentration−0% activity)/(100% activity−0% activity))×100 (13) Effective activity was calculated in 4α-PDD the above. The EC50 value was calculated by dose-response curve. (14) The Ki value of a compound was calculated by the following formula. Ki (nmol/L)=IC50 value (nmol/L)/([A]/EC50 value (nmol/L)) [A]; Concentration of agonist (nmol/L)

Solubility test = format: physicochemical; conditions: artificial intestinal juice (phosphate buffer) with 1% DMSO, fassgf or other biorelevant, kinetic from dmso stock, artificial intestinal juice pH 6.8, 16 hours at 25° C.
Description: The solubility of each compound is determined under 1% DMSO addition conditions. A 10 mmol/L solution of the compound is prepared with DMSO, and 6 μL of the compound solution is added to 594 μL of an artificial intestinal juice (water and 118 mL of 0.2 mol/L NaOH reagent are added to 250 mL of 0.2 mol/L potassium dihydrogen phosphate reagent to reach 1000 mL) with a pH of 6.8. The mixture is left standing for 16 hours at 25° C., and the mixture is vacuum-filtered. The filtrate is two-fold diluted with methanol/water=1/1, and the compound concentration in the filtrate is measured with HPLC or LC/MS/MS by the absolute calibration method.

human TRPV4 [2] = target: T1, human TRPV4; experiment: Test Example 1: measurement of TRPV4 inhibitory activity (Fluo 4-AM, FLIPR TETRA, 4α-PDD 1 μmol/L); format: cell-based; conditions: hTRPV4/CHO cells; for IC50: 4α-PDD 1 μmol/L; for Ki: calculated from IC50 and 4α-PDD EC50
Procedure, shortened: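 Calcium influx evoked by 4α-PDD (final 1 μmol/L) in hTRPV4/CHO-K1 cells loaded with Fluo-4 AM (final 3 μmol/L), pH 7.4 HEPES-Hanks with probenecid; compounds added 5 min earlier. Inhibition relative to 20 μM Ruthenium Red gave IC50 (logistic), converted to Ki via agonist EC50.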

[3] = Metabolism stability test; format: in vitro ADME; conditions: human liver microsomes, 30 minutes
Description: Using a commercially available pooled human hepatic microsomes, a test compound was reacted for a constant time, a remaining rate was calculated by comparing a reacted sample and an unreacted sample, thereby, a degree of metabolism in liver was assessed.
A reaction was performed (oxidative reaction) at 37° C. for 0 minute or 30 minutes in the presence of 1 mmol/L NADPH in 0.2 mL of a buffer (50 mmol/L Tris-HCl pH 7.4, 150 mmol/L potassium chloride, 10 mmol/L magnesium chloride) containing 0.5 mg protein/mL of human liver microsomes. After the reaction, 50 μL of the reaction mixture was added to 100 μL of a methanol/acetonitrile=1/1 (v/v), mixed and centrifuged at 3000 rpm for 15 minutes. The test compound in the supernatant was quantified by LC/MS/MS, and a remaining amount of the test compound after the reaction was calculated, letting a compound amount at 0 minute reaction time to be 100%. Hydrolysis reaction was performed in the absence of NADPH and glucuronidation reaction was in the presence of 5 mM UDP-glucuronic acid in place of NADPH, followed by similar operations.

[4] = target: human ether-a-go-go related gene (hERG) channel (Homo sapiens (Human), UniProt Q12809); experiment: hERG test (whole cell patch clamp, IKr); format: cell-based; conditions: 1 μmol/L of test compound, HEK293 cells expressing hERG
From the text: For the purpose of assessing risk of an electrocardiogram QT interval prolongation, effects on delayed rectifier K^+ current (IKr), which plays an important role in the ventricular repolarization process, was studied using HEK293 cells expressing human ether-a-go-go related gene (hERG) channel.
After a cell was retained at a membrane potential of −80 mV by whole cell patch clamp method using an automated patch clamp system (PatchXpress 7000A, Axon Instruments Inc.), IKr induced by depolarization pulse stimulation at +40 mV for 2 seconds and, further, repolarization pulse stimulation at −50 mV for 2 seconds was recorded. […] From the recording IKr, an absolute value of the tail peak current was measured based on the current value at the resting membrane potential using an analysis software (DataXpress ver. 1, Molecular Devices Corporation). Further, the % inhibition relative to the tail peak current before application of the test substance was calculated, and compared with the vehicle-applied group (0.1% dimethyl sulfoxide solution) to assess influence of the test substance on IKr.

[5] = compound concentration 2 μmol/L
[6] = compound concentration 0.5 μmol/L

T1 sequence (Q9HBA0 whole entry): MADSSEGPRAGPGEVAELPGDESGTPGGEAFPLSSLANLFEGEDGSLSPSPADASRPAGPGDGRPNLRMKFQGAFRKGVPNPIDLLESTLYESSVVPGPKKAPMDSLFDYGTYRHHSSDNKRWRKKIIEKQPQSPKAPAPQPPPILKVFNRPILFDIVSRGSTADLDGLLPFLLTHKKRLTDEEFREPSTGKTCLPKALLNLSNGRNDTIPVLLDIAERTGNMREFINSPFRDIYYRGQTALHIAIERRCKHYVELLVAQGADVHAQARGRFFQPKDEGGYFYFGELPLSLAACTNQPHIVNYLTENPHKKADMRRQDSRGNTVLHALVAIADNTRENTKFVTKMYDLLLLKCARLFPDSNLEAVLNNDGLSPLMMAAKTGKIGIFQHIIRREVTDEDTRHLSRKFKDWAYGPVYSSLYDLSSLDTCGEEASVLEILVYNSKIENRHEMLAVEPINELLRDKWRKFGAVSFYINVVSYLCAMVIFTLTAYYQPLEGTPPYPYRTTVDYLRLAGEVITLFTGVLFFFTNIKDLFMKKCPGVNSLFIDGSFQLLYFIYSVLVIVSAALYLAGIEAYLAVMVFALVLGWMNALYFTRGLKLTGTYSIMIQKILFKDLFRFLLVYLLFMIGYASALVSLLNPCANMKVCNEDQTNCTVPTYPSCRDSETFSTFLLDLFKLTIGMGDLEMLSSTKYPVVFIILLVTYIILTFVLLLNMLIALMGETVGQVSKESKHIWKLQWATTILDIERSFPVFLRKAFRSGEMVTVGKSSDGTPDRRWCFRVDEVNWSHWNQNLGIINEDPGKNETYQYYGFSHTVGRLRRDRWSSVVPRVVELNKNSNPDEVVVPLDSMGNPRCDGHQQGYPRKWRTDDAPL
Chain of human ether-a-go-go related gene (hERG) channel (Q12809 whole entry): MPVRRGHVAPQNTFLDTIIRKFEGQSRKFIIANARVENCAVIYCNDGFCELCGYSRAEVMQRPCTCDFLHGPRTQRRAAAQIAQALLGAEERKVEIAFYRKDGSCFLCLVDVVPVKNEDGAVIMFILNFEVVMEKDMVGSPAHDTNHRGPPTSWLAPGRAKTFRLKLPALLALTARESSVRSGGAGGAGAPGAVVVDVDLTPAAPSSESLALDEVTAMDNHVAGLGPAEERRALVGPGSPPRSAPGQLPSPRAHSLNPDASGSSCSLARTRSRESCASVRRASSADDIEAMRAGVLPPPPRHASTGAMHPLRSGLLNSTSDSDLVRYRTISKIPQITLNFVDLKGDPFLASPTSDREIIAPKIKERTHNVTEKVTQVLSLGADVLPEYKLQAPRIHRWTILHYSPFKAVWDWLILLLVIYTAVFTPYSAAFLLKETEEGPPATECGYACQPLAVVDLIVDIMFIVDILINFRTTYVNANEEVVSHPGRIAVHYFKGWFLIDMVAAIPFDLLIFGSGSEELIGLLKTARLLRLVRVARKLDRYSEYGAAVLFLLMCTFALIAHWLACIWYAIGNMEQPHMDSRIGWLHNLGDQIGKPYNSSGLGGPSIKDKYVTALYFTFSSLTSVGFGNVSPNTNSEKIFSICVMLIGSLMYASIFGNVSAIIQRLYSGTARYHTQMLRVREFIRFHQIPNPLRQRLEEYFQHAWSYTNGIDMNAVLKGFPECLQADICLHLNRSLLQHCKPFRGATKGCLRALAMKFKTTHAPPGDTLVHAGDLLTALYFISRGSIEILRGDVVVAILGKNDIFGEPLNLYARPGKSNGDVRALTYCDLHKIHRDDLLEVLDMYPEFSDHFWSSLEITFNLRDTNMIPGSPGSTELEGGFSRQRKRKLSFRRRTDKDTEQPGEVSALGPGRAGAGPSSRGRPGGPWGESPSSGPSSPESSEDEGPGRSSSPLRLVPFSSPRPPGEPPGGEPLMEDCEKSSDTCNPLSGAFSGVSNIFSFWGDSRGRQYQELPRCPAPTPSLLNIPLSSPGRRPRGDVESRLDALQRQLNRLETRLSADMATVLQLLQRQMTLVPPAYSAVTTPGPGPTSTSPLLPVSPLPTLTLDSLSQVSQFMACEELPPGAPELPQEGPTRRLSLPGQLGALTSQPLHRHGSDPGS

| SMILES | Ki (human TRPV4 [1]) | solubility at 16 h (Solubility test) | IC50 (human TRPV4 [2]) | remaining rate (metabolism stability) [3, 5] | remaining rate (metabolism stability) [3, 6] | Ki (human TRPV4 [2]) | hERG % inhibition [4] |
| --- | --- | --- | --- | --- | --- | --- | --- |
| Cc1c(C(=O)Nc2cccc(C(F)(F)F)c2)cc(C(C)(C)C)n1CCCN1CCOCC1 [Compound I-002] | 0.197 µM | 19.3 µM (≈ 8.71 µg/mL) | 0.36 µM | – | – | – | – |
| Cc1c(C(=O)Nc2cnccn2)cc(-c2ccccc2)n1CCCN1CCOCC1 [Compound I-003] | 3.07 µM | > 50 µM | – | 71.4% | – | – | – |
| Cc1c(C(=O)Nc2ccc(Cl)cn2)cc(-c2ccccc2)n1CCCN1CCOCC1 [Compound I-004] | 1.57 µM | 39.2 µM (≈ 17.2 µg/mL) | – | – | – | – | – |
| CCOC(=O)Cc1csc(NC(=O)c2cc(-c3ccccc3)n(CCCN3CCOCC3)c2C)n1 [Compound I-005] | 1.7 µM | > 50 µM | – | – | – | – | – |
| Cc1c(C(=O)Nc2ccccc2)cc(-c2ccccc2)n1CCCN1CCOCC1 [Compound I-009] | 0.678 µM | > 50 µM | 1.5 µM | – | – | – | – |
| Cc1c(C(=O)Nc2cccc(C(F)(F)F)c2)cc(-c2ccccc2)n1CCCN(CCO)CCO [Compound I-016] | 0.191 µM | > 50 µM | 0.13 µM | – | – | – | – |
| Cc1cc(C(=O)Nc2cccc(C(F)(F)F)c2)c(C)n1CCCN1CCOCC1 [Compound I-017] | 1.56 µM | > 50 µM | – | – | – | – | – |
| Cc1c(C(=O)Nc2nccs2)cc(-c2ccccc2)n1CCCN1CCOCC1 [Compound I-019] | 1.5 µM | > 50 µM | – | 89.1% | – | – | – |
| Cc1c(C(=O)Nc2cccc(C(F)(F)F)c2)cc(-c2cccnc2)n1CCCN1CCOCC1 [Compound I-021] | 0.379 µM | > 50 µM | 0.61 µM | – | – | – | – |
| Cc1c(C(=O)Nc2ccccc2C(F)(F)F)cc(-c2ccccc2)n1CCCN1CCOCC1 [Compound I-022] | 2.48 µM | > 50 µM | 2.4 µM | – | – | – | – |
| Cc1c(C(=O)Nc2cccc(C(F)(F)F)c2)cc(-c2ccccc2)n1CCCN [Compound I-023] | 0.605 µM | – | – | – | 96.9% | – | – |
| Cc1c(C(=O)Nc2cccc(C(F)(F)F)c2)cc(-c2ccccc2)n1CCCN(C)CC1CC1 [Compound I-033] | 0.655 µM | 26.8 µM (≈ 12.6 µg/mL) | – | – | – | – | – |
| Cc1c(C(=O)Nc2cccc(C(F)(F)F)c2)cc(-c2ccccc2)n1CCCN(C)CC[C@H](O)[C@H](O)CO [Compound I-035] | 0.771 µM | > 50 µM | – | – | 82.2% | – | – |
| Cc1c(C(=O)Nc2cccc(C(F)(F)F)c2)cc(-c2ccccc2)n1CCCN(C)CC(C)(C)CN(C)C [Compound I-038] | 0.352 µM | > 50 µM | – | – | – | – | – |
| Cc1c(C(=O)Nc2cccc(C(F)(F)F)c2)cc(-c2ccccc2)n1CCCN(C)CC1CCN(C)CC1 [Compound I-039] | 0.282 µM | > 50 µM | – | – | – | – | – |
| Cc1c(C(=O)Nc2cccc(C(F)(F)F)c2)cc(-c2ccccc2)n1CCCN1CCNC(=O)C1 [Compound I-071] | 0.196 µM | 18.5 µM (≈ 8.96 µg/mL) | 0.26 µM | – | – | – | – |
| Cc1c(C(=O)Nc2cccc(C(F)(F)F)c2)cc(-c2ccncc2)n1CCCN1CCOCC1 [Compound I-074] | – | > 50 µM | 1.7 µM | – | – | 0.78 µM | – |
| Cc1c(C(=O)Nc2cccc(C(F)(F)F)c2)cc(C2CCNCC2)n1CCCN1CCOCC1 [Compound I-076] | – | > 50 µM | 9.7 µM | – | 92.7% | 4.7 µM | – |
| CC(=O)N1CCC(c2cc(C(=O)Nc3cccc(C(F)(F)F)c3)c(C)n2CCCN2CCOCC2)CC1 [Compound I-077] | – | > 50 µM | 4.7 µM | – | – | 2 µM | – |
| Cc1c(C(=O)Nc2cccc(C(F)(F)F)c2)cc(C2CCN(S(C)(=O)=O)CC2)n1CCCN1CCOCC1 [Compound I-078] | – | 20.1 µM (≈ 11.2 µg/mL) | 4.9 µM | – | – | 2.1 µM | – |
| Cc1c(C(=O)Nc2cccc(C(F)(F)F)c2)cc(C#N)n1CCCN1CCOCC1 [Compound I-079] | – | 40.2 µM (≈ 16.9 µg/mL) | 7.8 µM | – | – | 3.2 µM | – |
| Cc1c(NS(=O)(=O)c2cccc(C(F)(F)F)c2)cc(-c2ccccc2)n1CCCN1CCOCC1 [Compound I-080] | 1.8 µM | 24.3 µM (≈ 12.3 µg/mL) | 7.4 µM | – | – | – | – |
| Cc1c(NC(=O)c2cccc(C(F)(F)F)c2)cc(-c2ccccc2)n1CCCN1CCOCC1 [Compound I-082] | 1.44 µM | > 50 µM | – | – | – | – | 13.5% |
| O=C(Nc1cccc(C(F)(F)F)c1)c1cc(-c2ccccc2)nn1CCCN1CCOCC1 [Compound I-085] | – | 14.5 µM (≈ 6.65 µg/mL) | 1.3 µM | – | – | 0.59 µM | – |
| O=C(Nc1cccc(C(F)(F)F)c1)c1cc(-c2ccccc2)n(CCCN2CCOCC2)n1 [Compound I-086] | – | 8.3 µM (≈ 3.81 µg/mL) | 3.4 µM | – | – | 1.6 µM | – |
| O=C(Nc1cccc(C(F)(F)F)c1)c1cnc(-c2ccccc2)c(CCCN2CCOCC2)c1 [Compound I-088] | – | 35.1 µM (≈ 16.5 µg/mL) | 5.8 µM | – | – | 2.8 µM | – |
